Earlier results as cited in patent US20050049268A1, “Use of at least one abl, kit and/or platelet-derived growth factor receptor tyrosine kinases inhibitor for treating hair depigmentation” (priority 2001, published 2005).

How the values were obtained:
[1] = molecular target: receptor for stem cell factor (Homo sapiens, UniProt P10721)
α-PDGF receptor = α-PDGF receptor (Homo sapiens, UniProt P16234)
β-PDGF receptor = β-PDGF receptor (Homo sapiens, UniProt P09619)
[2] = tested on: platelet-derived growth factor (PDGF) receptor tyrosine kinases; details: in vitro
c-Met = c-Met (Homo sapiens, UniProt P08581)
Jak-2 = Jak-2 (Homo sapiens, UniProt O60674)
Chain of Jak-2 (O60674 whole entry, species assumed): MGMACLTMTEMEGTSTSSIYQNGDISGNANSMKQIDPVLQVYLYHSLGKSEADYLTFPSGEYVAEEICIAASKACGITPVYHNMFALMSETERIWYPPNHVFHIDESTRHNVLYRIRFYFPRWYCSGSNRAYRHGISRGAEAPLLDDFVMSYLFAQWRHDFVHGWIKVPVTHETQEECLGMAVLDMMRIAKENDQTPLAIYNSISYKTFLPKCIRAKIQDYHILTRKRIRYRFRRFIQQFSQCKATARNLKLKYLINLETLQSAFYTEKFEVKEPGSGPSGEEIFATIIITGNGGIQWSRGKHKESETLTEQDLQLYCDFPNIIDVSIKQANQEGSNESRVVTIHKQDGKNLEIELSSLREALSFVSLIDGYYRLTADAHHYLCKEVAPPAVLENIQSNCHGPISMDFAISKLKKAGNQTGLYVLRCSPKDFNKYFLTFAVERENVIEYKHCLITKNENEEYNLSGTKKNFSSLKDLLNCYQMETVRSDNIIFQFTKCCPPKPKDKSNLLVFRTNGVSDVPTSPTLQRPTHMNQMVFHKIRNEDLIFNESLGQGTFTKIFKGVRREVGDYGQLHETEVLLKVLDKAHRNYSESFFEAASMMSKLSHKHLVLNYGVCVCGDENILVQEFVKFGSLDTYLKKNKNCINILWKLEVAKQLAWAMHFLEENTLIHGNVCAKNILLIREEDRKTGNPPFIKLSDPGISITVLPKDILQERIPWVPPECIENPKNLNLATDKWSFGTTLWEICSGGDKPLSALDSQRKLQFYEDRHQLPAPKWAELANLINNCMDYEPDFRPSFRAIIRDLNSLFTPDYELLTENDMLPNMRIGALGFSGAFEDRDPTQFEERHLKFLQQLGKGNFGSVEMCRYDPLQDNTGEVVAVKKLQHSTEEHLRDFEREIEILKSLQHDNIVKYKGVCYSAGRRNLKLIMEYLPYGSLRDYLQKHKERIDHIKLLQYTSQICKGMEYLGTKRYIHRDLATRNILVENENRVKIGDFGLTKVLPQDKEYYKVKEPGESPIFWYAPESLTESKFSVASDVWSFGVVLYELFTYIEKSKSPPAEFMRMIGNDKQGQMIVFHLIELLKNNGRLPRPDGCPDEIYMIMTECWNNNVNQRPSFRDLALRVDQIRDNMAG

Chain of α-PDGF receptor (P16234 24-1089): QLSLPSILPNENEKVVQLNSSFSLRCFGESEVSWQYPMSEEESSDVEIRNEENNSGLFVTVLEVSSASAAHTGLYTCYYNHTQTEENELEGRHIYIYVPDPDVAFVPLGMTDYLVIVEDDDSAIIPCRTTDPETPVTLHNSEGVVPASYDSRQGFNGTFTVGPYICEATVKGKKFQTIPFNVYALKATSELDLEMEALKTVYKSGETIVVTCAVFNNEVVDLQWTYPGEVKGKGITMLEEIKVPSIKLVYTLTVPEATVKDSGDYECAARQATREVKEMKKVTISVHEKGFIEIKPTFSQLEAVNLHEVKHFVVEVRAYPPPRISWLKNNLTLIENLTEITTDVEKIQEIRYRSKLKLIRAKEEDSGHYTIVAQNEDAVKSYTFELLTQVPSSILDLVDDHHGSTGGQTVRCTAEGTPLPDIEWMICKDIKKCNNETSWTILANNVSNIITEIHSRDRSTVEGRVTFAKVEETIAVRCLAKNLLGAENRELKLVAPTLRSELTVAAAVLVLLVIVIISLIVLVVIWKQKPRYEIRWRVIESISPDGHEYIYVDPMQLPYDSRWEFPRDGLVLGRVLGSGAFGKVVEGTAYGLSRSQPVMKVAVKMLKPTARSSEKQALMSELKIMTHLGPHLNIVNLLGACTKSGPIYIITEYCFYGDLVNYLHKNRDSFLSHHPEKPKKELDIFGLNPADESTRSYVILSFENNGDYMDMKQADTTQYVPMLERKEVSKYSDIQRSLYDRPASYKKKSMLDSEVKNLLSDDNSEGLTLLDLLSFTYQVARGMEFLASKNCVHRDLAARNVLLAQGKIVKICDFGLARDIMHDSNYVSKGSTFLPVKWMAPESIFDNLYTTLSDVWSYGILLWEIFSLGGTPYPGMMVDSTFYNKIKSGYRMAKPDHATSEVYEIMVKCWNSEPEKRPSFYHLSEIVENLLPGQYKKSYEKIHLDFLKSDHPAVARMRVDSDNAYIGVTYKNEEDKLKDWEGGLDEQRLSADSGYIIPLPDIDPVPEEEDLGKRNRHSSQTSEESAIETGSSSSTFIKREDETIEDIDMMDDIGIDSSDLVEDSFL
Chain of β-PDGF receptor (P09619 33-1106): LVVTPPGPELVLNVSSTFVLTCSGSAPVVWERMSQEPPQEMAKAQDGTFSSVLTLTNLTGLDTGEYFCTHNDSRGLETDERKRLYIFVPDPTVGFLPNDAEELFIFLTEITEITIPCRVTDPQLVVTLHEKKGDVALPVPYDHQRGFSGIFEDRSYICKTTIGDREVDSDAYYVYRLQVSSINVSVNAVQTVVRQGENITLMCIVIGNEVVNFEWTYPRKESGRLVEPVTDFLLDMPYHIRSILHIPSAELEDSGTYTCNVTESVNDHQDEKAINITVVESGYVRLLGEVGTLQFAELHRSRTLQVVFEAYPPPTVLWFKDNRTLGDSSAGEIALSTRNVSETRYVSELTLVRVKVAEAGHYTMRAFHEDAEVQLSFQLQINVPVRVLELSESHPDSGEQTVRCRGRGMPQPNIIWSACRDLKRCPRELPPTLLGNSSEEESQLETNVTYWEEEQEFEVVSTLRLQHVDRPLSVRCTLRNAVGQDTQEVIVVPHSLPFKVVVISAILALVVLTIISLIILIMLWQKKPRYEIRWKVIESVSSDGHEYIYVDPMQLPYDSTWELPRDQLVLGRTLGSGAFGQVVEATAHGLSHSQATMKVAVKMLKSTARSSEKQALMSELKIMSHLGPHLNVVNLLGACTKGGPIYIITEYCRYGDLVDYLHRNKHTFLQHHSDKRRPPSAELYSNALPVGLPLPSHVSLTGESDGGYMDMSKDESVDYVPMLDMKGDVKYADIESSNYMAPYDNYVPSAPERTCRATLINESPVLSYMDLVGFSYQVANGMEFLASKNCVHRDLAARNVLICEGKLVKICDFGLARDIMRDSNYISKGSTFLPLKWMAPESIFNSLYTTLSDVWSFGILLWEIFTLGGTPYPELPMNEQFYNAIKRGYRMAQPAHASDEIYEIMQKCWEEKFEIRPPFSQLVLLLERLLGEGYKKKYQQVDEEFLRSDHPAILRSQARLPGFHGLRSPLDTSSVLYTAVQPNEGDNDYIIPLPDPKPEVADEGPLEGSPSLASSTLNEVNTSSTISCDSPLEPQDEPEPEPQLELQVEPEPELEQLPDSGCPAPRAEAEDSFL
Chain of receptor for stem cell factor (P10721 26-976): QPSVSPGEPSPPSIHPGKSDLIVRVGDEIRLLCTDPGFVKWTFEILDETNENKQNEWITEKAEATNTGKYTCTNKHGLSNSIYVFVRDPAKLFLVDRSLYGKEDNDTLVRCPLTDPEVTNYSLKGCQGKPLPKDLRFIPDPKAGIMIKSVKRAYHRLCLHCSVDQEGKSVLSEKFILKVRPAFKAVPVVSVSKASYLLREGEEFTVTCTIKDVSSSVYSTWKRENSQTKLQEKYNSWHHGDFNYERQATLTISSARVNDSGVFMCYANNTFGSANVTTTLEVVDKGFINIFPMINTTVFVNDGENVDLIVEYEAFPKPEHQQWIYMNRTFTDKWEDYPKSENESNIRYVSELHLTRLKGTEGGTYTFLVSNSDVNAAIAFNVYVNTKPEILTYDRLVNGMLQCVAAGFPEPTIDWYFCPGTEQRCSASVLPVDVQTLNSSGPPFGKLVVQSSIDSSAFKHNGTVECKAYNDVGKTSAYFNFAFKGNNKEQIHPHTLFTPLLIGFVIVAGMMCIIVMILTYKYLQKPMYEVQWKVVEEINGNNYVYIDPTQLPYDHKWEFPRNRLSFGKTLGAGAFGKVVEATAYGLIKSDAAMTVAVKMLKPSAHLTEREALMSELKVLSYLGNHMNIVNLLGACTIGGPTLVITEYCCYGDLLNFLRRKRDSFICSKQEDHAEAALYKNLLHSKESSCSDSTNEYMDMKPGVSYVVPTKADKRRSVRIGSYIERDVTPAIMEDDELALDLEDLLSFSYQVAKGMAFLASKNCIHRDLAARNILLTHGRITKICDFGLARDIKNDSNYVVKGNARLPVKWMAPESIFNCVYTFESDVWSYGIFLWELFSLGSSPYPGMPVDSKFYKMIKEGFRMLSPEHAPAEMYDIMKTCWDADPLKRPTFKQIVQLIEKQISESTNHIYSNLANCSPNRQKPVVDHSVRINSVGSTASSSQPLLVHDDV

inhibition of kinase activity of the receptor for stem cell factor [1]: potently inhibit
inhibition of kinase activity of α-PDGF receptor (α-PDGF receptor): potently inhibit
inhibition of kinase activity of β-PDGF receptor (β-PDGF receptor): potently inhibit
inhibition of c-Met (c-Met): no inhibition
inhibition of Jak-2 (Jak-2): no inhibition
Compound: Cc1ccc(NC(=O)c2ccc(CN3CCN(C)CC3)cc2)cc1Nc1nccc(-c2cccnc2)n1 [Imatinib, N-{5-[4-(4-methyl-piperazino-methyl)-benzoylamido]-2-methylphenyl}-4-(3-pyridyl)-2-pyrimidine-amine]
inhibition of PDGF receptor tyrosine kinases [2]: selectively inhibits
